“Also recorded” adds a separate entry of the source. Where no end group is shown, it is not given here.
Assays:
[1] = system: NIH:OVCAR5 control shRNA and NIH:OVCAR5-VB3 cells; assay: Spheroid formation of cells pretreated with mitomycin C; assay type: cell-based, human; settings: data not shown
Procedure: Spheroids were formed from the NIH:OVCAR5 cell lines described above using the liquid overlay method. One milliliter of a single cell suspension was seeded at a concentration of 50,000 cells/ml in OptiMEM® media, into 24-well tissue culture plates coated with 0.5% Seakem agarose (in complete RPMI-1640). Plates were incubated at 37° C. in a humidified incubator with 5% CO2. At various time points up to 5 days, the plates were removed from the incubator and the spheroids were photographed with a Nikon CoolPix digital camera mounted on an Olympus CK2 inverted microscope with a 4× objective. The size of the spheroids was determined using the measure tool in Adobe Photoshop. The largest spheroids were quantified (20-90 spheroids/well), in a minimum of 8 wells, for a total of >300 spheroids per cell type.
Ovarian cancer is unique in that tumor cells commonly grow within the peritoneal cavity as free floating multi-cellular aggregates (spheroids) in the ascites fluid. […] Spheroids formed by both cell types appeared tightly aggregated, in contrast to previous results with the cell adhesion molecule claudin-4, where cells depleted of claudin-4 formed spheroids more slowly and the spheroids formed had increased paracellular permeability. […]

[2] = system: adhesion of NIH:OVCAR5-N4-over cells to recombinant human Nectin-1 extracellular domain; assay: Inhibition of NIH:OVCAR5-N4-over cell adhesion to recombinant Nectin-1 by synthetic nectin peptides; assay type: cell-based; settings: 150 μg/ml peptide; 0.5 μg/well Nectin-1; 30 min adhesion; listed as N1-P20
Procedure: Black, clear-bottom 96-well microtiter plates (Corning, Imported Costar, Corning, N.Y.) were coated with recombinant human Nectin-1 extracellular domain (R&D Systems), recombinant human Nectin-4 extracellular domain (R&D Systems), mouse laminin (Invitrogen™), or bovine serum albumin (BSA; Probumin Diagnostic Grade, MilliPore) diluted in PBS. Covered plates were incubated overnight at 37° C. in a humidified incubator. After washing with PBS plus Ca^2+/Mg^2+ containing 2 mg/ml ovalbumin (Sigma-Aldrich), the plates were blocked for 1 hat 37° C. with 1% BSA in PBS without Ca^2+/Mg^2+. Confluent monolayers of NIH:OVCAR5 cells or NIH:OVCAR5-N4-over cells were detached with Accutase, and then filtered through a 40 μm cell strainer (BD Biosciences, San Jose, Calif.) to remove cell aggregates. The single cells were stained with CellTracker Green CMFDA (5-chloromethylfluorescein diacetate; Invitrogen™) according to the manufacturer's protocol. […] Plates were vigorously washed four times and read in a BioTek Synergy fluorescent microplate reader (BioTek, Winooski, V A). […]
Microtiter plates coated with recombinant Nectin-1 as described above were pre-incubated for 30 min at room temperature with 150 μg/ml Nectin-4 peptides in PBS in triplicate. CMFDA-stained NIH:OVCAR5-N4-over cells were then added to the wells and cell adhesion was quantified as described above. […]

[3] = system: nectin 4 protein on NIH:OVCAR-5 cells; assay: Effect of peptides on anti-Nectin-4 antibody binding to cells as determined by flow cytometry; assay type: cell-based, human; settings: for IgG MFI: IgG control primary antibody; for nectin-4 antibody binding compared to untreated control cells (in words): flow cytometry
Procedure, shortened: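 NIH:OVCAR-5 cells, which natively express nectin 4, were incubated for 30 min with soluble peptide at 150 μg/mL in DMSO. Cells were then stained with mouse anti-nectin 4 or IgG control, followed by biotinylated anti-mouse and streptavidin-APC. Antibody binding relative to untreated control was measured by flow cytometry.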

[4] = system: ovarian cancer cell aggregation and spheroid formation; assay: Spheroid assay for peptides (visual scale +1 to +5); assay type: cell-based, human
Procedure, shortened: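 OVCAR5 cells seeded at 50,000 cells/ml in OptiMEM on 0.5% agarose-coated wells (liquid overlay), incubated at 37° C., 5% CO2 up to 5 days. Spheroids photographed under 4× objective and sized; peptide effects scored on a visual +1 to +5 scale at 24 and 48 hrs.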

Row | Molecule | aggregation of cells in presence of mitomycin C ([1]; NIH:OVCAR5-VB3 cells with Nectin-4 knocked down by shRNA) | spheroid size versus untreated control cells ([1]; shRNA control NIH:OVCAR5 cells, after 24 h) | effect on cell adhesion to Nectin-1 (in words) [2] | N4 MFI/IgG MFI ([3]; Run Four, Control 4 = 9.387504873) | IgG MFI ([3]; Run Four, Control 4 = 1,026) | nectin-4 antibody binding, percent of control ([3]; Run Four, antibody binding relative to Control 4 = 100) | nectin-4 antibody binding compared to untreated control cells (in words) ([3]; 150 μg/mL peptide) | N4 MFI ([3]; Run One, 150 μg/mL peptide, 30 minutes, Control 1 = 15,015) | IgG MFI ([3]; Run One, 150 μg/mL peptide, 30 minutes, Control 1 = 1,670) | N4 MFI/IgG MFI ([3]; Run One, Control 1 = 8.99) | nectin-4 antibody binding, percent of control ([3]; Run One, antibody binding relative to Control 1 = 100.00) | Flow binding ([3]; summary table, Nectin-4 antibody binding relative to control = 100) | Spheroid-24 ([4]; 24 hrs, visual scale of +1 to +5, Control = 2) | spheroid size relative to the control (in words) ([4]; at 24 hrs)
1 | CO[C@@]12[C@H](COC(N)=O)C3=C(C(=O)C(C)=C(N)C3=O)N1C[C@@H]1N[C@@H]12 [mitomycin C] | No difference was observed | smaller than the untreated control cells | – | – | – | – | – | – | – | – | – | – | – | –
2 | NWYLQRMDVKLTCK-NH2 (listed as Homo sapiens) [Peptide 49] | – | – | to a greater extent than the mAb against Nectin-1; also recorded: complete inhibition | 10.36 | 29486 | 3206 | erroneous/outlier | – | – | – | – | – | – | –
3 | PPPRNPLDGSVLLR-NH2 (listed as Homo sapiens) [Peptide 7] | – | – | – | – | – | – | increased the binding of the Nectin-4 antibody to cells | 18,342 | 1,255 | 14.62 | 128.04 | 128% | 3 | slightly larger spheroid size
